According to BigSolDB 2.1:

CCCCCCCCCCCC(=O)O
solubility (mole fraction)
Conditions | in ethanol | in isobutanol | in isopentanol | in methanol | in n-butanol | in n-hexanol | in n-pentanol | in n-propanol
276.17 K | 0.0422 | 0.0659 | 0.0814 | 0.0318 | 0.0646 | 0.0827 | 0.0742 | 0.054
279.16 K | 0.0554 | 0.0817 | 0.1 | 0.0419 | 0.0801 | 0.0991 | 0.0907 | 0.0685
282.16 K | 0.0739 | 0.102 | 0.122 | 0.0555 | 0.0999 | 0.122 | 0.113 | 0.0859
285.15 K | 0.0924 | 0.128 | 0.15 | 0.0723 | 0.123 | 0.151 | 0.137 | 0.108
288.15 K | 0.119 | 0.158 | 0.179 | 0.0942 | 0.151 | 0.183 | 0.167 | 0.135
291.14 K | 0.151 | 0.195 | 0.217 | 0.123 | 0.188 | 0.22 | 0.204 | 0.169
294.14 K | 0.194 | 0.238 | 0.263 | 0.161 | 0.229 | 0.266 | 0.247 | 0.21
297.13 K | 0.244 | 0.289 | 0.315 | 0.208 | 0.283 | 0.322 | 0.301 | 0.261
300.13 K | 0.305 | 0.351 | 0.376 | 0.264 | 0.338 | 0.39 | 0.368 | 0.319
303.12 K | 0.386 | 0.422 | 0.446 | 0.341 | 0.418 | 0.464 | 0.435 | 0.399
306.12 K | 0.482 | 0.514 | 0.537 | 0.433 | 0.51 | 0.549 | 0.53 | 0.488
